Where “and” joins values, the source holds several entries; their conditions need not be identical. Equal values may be shown once.

Assay [1] deals with T1, alkane hydroxylase (Ectopseudomonas oleovorans, UniProt P12691).
T1 sequence (P12691 1-401): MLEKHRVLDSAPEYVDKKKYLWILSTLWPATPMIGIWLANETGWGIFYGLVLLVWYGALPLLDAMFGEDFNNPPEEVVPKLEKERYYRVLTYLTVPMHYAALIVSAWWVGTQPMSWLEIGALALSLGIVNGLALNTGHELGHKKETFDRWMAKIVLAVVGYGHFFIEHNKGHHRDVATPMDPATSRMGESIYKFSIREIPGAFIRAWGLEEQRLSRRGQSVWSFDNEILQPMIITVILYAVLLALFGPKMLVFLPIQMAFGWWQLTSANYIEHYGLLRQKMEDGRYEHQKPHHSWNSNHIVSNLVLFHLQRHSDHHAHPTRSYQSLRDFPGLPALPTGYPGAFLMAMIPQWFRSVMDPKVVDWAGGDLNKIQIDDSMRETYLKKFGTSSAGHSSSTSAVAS
The note with it: cited from earlier work.

Assay [2] concerns the target T2, alkene monooxygenase (Xanthobacter versatilis, UniProt O87082).
T2 sequence (O87082 1-497): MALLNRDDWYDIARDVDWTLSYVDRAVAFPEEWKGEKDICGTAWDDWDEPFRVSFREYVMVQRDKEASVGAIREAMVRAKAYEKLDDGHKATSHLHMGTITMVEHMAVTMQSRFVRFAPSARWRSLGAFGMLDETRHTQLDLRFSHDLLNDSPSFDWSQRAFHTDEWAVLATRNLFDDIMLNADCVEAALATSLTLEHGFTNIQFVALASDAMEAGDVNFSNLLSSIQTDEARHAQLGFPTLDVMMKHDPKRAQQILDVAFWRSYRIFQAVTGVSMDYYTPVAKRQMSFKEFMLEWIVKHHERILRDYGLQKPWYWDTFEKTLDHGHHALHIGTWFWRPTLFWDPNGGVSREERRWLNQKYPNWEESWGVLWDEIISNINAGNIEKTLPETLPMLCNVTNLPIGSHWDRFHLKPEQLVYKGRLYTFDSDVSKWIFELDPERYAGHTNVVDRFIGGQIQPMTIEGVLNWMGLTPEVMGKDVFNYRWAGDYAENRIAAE
Particulars: cited from earlier work.

For assay [3], the system named is Pseudomonas sp. strain ENVPC5. As to the kind of experiment: Enantiomeric ratio of monoepoxides (chiral GC), strain ENVPC5. The note with it: PC5. It counts as cell-based. How it is done: (§1) To determine the ratio of R and S isomers of the epoxides formed from the oxidation of the alkenes, samples were analyzed for the presence of the epoxides and alkenes by gas chromatography as described above. When the epoxide concentration neared its maximum, or when the 80–90% of the substrate was degraded, the enantiomeric ratio of epoxides produced was determined by injecting a sample of the headspace gas onto a GC equipped with a chiral separation column (RT-BDEXSE; Restek, Inc., Bellefonte, Pa.) and a flame ionization detector. The column was maintained at 50° C.

In assay [4] the test system is Pseudomonas pickettii PKO1 (T3MO). As to the kind of experiment: Enantiomeric ratio of monoepoxides (chiral GC), strain PKO1. Format: cell-based. The note with it: KO1 (PKO1). Here is the method:
as §1

Assay [5] has as its system Burkholderia cepacia G4 (T2MO). As to the kind of experiment: Enantiomeric ratio of monoepoxides (chiral GC), strain G4. It counts as cell-based. Here is the method: as §1
The test system of assay [6] is Burkholderia sp. strain ENVBF1. Put plainly: Enantiomeric ratio of monoepoxides (chiral GC), strain ENVBF1. Format: cell-based. How it is done:
as §1

Assay [7] has as its system Pseudomonas mendocina KR1 (T4MO). Put plainly: Enantiomeric ratio of monoepoxides (chiral GC), strain KR1. It counts as cell-based. How it is done:
as §1

Assay [8] concerns Pseudomonas sp. strain ENVPC5. Put plainly: Alkene degradation assay, whole cells of Pseudomonas sp. strain ENVPC5 (T4MO). Particulars: following 30 minutes incubation. It counts as cell-based. An excerpt: (§2) Pseudomonas mendocina KR1 (Yen et al., J. Bacteriol., 173:5315–5327 (1991)), the T4MO mutant of KR1 Pseudomonas mendocina ENVpmx1 (McClay et al., The 97th Annual Meeting of ASM, Abstract K36, page 348 (1997)), Pseudomonas pickettii PKO1 (Byrne et al., Gene, 154:65–70 (1995)), Burkholderia cepacia G4 (Shields et al., Appl. Environ. Microbiol., 55:1624–1629 (1989)), Burkholderia sp. strain ENVBF1 (McClay et al., Appl. Environ. Microbiol., 62:2716–2722 (1996)), and Pseudomonas sp. strain ENVPC5 (McClay et al., 1996, supra) were cultured overnight at 30° C. in shake flasks containing basal salts medium (BSM; 10) supplemented with 0.4% sodium glutamate. Toluene was included in the vapor phase when induction of the toluene oxygenases was desired. Prior to substrate degradation assays the cultures were harvested by centrifugation and resuspended in BSM to an optical density at 550 nm (OD550) of 2, unless otherwise indicated. A standard curve of optical density vs. protein concentration for each strain was used to calculate the amount of protein per ml of the resuspended cultures.
(§3) To determine the range of alkenes that could be degraded by the toluene monooxygenase and the degradation kinetics of the toluene monooxygenases, 5-ml aliquots of the resuspended cultures were dispensed to 25-ml serum vials and crimp sealed with Teflon™ faced septa. Gaseous alkene substrates were added as pure compounds by using a gas-tight syringe, and other alkene substrates were added from stock solutions (20% in dimethylformamide). The amount of individual alkene substrates added were as follows: 1-butene, 2-butene, and 1,3-butadiene, 2.2 μM; epoxy butane, 1,3-butadiene monoxide, and epichlorohydrine, 8 μM; 1- and 2-pentene, 9 μM; hexene, 4 μM; octadiene, 4.5 μM; 2-chloropropene, 11 μM; and, 2,3-dichloropropene, 12 μM unless otherwise indicated. The serum vials were then placed horizontally on a rotary shaker operating at 100 rpm. During incubation the temperature was maintained between 20–22° C. for the Pseudomonads and at 37° C. for E. coli. The serum vials were periodically removed from the shaker and a 10–25 μl portion of the headspace gas was withdrawn through the septa and injected onto a gas chromatograph (GC) equipped with a 30 m Vocol column (Supelco Inc. Bellefonte, Pa.) maintained at 160° C., and a flame ionization detector. This allowed the monitoring of both the alkene compounds as well as the epoxide products. The same protocol was used to detect the formation of 1,2-butanediol and butadiene diepoxide, except that 1 μl of the culture media was injected onto the column rather than the headspace gas.

Assay [9] concerns E. coli (pRS202) expressing T4MO. Put plainly: Alkene degradation assay, E. coli (pRS202) expressing T4MO. Format: cell-based, Escherichia coli DH10B. Here is the method: Escherichia coli DH10B containing the plasmid pRS202 (Pikus et al., Biochemistry, 35:9106–9119 (1996); Pikus et al., Biochemistry, 36:9283–9289 (1997)) was prepared in a similar manner except it was grown at 37° C. in LB media, and was resuspended to an OD550 of 4 in LB media with 0.3–1 mM IPTG to induce expression of T4MO.
as §3

In assay [10] the test system is wild type organisms. As to the kind of experiment: Alkene oxidation and epoxide detection (GC, PNBP), wild type organisms. Particulars: all the wild type strains. It counts as cell-based. Here is the method:
as §3
The only epoxides relevant to this study that were commercially available were 1,3-butadiene mono-, and diepoxide. These were used in GC analyses to determine retention times and to quantitate the conversion of 1,3-butadiene to the corresponding epoxides. To verify that the observed peaks were epoxides, a modification of the method of van Hylckama et al. (van Hylckama et al., Appl. Environ. Microbiol., 62:3304–3312 (1996)) was used, whereby epoxides were conjugated with PNBP to form intensely colored adducts of the epoxides. Serum vials were prepared as before, except that prior to sealing the vials, Durham tubes were placed inside the vials, with the opening of the Durham tube extending out of the liquid. The substrate was then added and the vials were incubated with moderate shaking at a 45° angle to prevent the culture liquid from entering the Durham tube. The transformation of the alkenes was monitored by GC analysis. […] The vials were then allowed to incubate for 8 hours before they were opened and the epoxide containing PNBP withdrawn. The total volume of PNBP solution was combined with an equal volume of acetone-triethylamine (50:50) and mixed rapidly. Epoxide/PNBP adducts were detected by spectra analysis (400–700 nm).

The test system of assay [11] is Pseudomonas mendocina ENVpmx1. As to the kind of experiment: Alkene degradation assay, T4MO deficient strain Pseudomonas mendocina ENVpmx1. It counts as cell-based.
Description: as §2, §3

In assay [12] the test system is Burkholderia cepacia G4. Put plainly: Alkene degradation assay, whole cells of Burkholderia cepacia G4 (T2MO). It counts as cell-based. The note with it: G4; following 30 minutes incubation.
Description: as §2, §3

Assay [13] deals with Pseudomonas mendocina KR1. As to the kind of experiment: Alkene degradation assay, whole cells of Pseudomonas mendocina KR1 (T4MO). It counts as cell-based.
Description: as §2, §3

Assay [14] relates to Burkholderia sp. strain ENVBF1. Put plainly: Alkene degradation assay, whole cells of Burkholderia sp. strain ENVBF1 (T4MO). It counts as cell-based. The note with it: ENVBF1; following 30 minutes incubation.
Description: as §2, §3

The subject of assay [15] is T4MO. As to the kind of experiment: Induction of T4MO by alkenes and toluene (FIG. 14). Format: cell-based. The note with it: at 120 minutes. How it is done:
The data points are the average of duplicate samples, with the range shown as error bars. The relative light units registered by the 2-pentene sample at 120 minutes was approximately 10^5.

Assay [16] has as its target soluble methane monooxygenase (MMO) (Methylosinus trichosporium, UniProt P27353). The note with it: cited from earlier work.
Assay [17] concerns the target T3, styrene monooxygenase (Pseudomonas sp, UniProt O50214).
T3 sequence (O50214 1-415): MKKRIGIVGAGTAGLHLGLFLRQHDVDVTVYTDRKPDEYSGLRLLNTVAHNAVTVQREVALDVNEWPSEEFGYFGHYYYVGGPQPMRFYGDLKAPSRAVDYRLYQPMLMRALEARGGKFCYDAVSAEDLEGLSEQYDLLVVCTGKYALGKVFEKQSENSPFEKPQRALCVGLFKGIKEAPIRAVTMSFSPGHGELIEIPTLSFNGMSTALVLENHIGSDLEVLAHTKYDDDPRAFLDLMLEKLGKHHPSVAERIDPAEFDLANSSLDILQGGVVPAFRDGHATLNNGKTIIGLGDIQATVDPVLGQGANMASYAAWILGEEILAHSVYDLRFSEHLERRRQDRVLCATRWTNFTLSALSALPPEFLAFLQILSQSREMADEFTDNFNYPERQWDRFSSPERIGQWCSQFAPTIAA
The note with it: cited from earlier work.

soluble methane monooxygenase (MMO), sequence (P27353 whole entry): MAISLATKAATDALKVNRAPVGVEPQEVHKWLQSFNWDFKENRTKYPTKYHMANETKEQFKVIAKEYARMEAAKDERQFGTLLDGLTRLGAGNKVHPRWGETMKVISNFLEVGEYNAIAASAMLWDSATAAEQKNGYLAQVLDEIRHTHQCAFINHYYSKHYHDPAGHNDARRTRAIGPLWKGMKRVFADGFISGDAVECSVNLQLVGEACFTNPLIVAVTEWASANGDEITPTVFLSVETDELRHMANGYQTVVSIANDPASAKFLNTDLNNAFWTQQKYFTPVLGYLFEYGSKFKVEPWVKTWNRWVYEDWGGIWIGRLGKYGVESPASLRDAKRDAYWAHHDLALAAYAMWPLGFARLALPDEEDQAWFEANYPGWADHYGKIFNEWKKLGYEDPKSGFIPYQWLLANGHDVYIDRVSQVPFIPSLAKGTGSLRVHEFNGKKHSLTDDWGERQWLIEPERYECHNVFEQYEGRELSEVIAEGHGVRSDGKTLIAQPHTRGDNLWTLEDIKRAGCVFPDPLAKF
soluble methane monooxygenase (MMO), sequence (P27354 whole entry partner): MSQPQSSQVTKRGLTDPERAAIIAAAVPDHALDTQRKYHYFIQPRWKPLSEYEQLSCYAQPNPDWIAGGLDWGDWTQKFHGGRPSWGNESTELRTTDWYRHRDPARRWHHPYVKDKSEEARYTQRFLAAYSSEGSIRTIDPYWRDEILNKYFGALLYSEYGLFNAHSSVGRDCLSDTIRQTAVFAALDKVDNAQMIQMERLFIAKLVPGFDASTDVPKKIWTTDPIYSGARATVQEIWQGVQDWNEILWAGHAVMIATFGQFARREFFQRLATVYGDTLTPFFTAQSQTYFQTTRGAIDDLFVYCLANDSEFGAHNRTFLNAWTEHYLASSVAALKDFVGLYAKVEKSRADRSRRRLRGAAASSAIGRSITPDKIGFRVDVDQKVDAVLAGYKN
soluble methane monooxygenase (MMO), sequence (P27355 whole entry partner): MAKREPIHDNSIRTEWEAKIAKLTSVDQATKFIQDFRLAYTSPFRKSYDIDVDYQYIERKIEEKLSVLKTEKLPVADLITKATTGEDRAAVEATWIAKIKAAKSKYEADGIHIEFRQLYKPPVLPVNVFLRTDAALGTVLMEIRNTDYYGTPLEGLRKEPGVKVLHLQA
soluble methane monooxygenase (MMO), sequence (P27356 whole entry partner): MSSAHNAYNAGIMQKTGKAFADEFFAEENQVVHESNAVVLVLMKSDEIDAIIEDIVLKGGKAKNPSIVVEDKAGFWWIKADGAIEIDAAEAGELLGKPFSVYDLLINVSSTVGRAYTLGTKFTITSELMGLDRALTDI

Turning to `C=CCCCCC=C` [1,7-octadiene], the “enantiomeric purity of the (R) epoxide formed” value in assay [1] is listed as 98%.
With `C=CCC` [1-butene], in assay [2], the R isomer formed was 94%. Besides, the “monoepoxide formed, R enantiomer” value in assay [3] is 11% and 11.3%; in assay [4] it was 8.3%; in assay [5], 6.5%; in assay [6] it was 9.8%; in assay [7] it was 0%. The “monoepoxide formed, S enantiomer” value in assay [3] was 89% and 88.7%; in assay [4], 92.7%; in assay [5] it was 93.5%; in assay [6], 90.2%.
As to `CC=CCC` [2-pentene], the “Specific activity of toluene monooxygenase, substrate degraded” value in assay [8] is 0.18 μM substrate degraded/minute/mg protein; in assay [12], 0.16 μM substrate degraded/minute/mg protein; in assay [13] (following 30 minutes incubation), 0.33 μM substrate degraded/minute/mg protein; in assay [14] it was 0.14 μM substrate degraded/minute/mg protein. For the same molecule, the “degradation by the clone of T4MO” value in assay [9] was “degraded”. For the same molecule, the “degradation” value in assay [10] is “efficiently degraded”. In addition, the “degradation compared with the wild type strains” value in assay [11] was “more rapidly and to a greater extent than the wild type strains”. In addition, the initial oxidation rate in assay [13] stood at 0.33 mM/min/mg protein. Moreover, the “induction of T4MO, relative light units” value in [15] was “approximately 10^5 relative light units”.
`C=CCCl` [3-chloropropene]: the “(S) epoxide formed” value in assay [2] is 80%.
As to `C=CC(C)C` [3-methyl-butene], in assay [16], the “oxidation by MMO” value is on record as “unable to oxidize”.
With `C=CCCCCC1CO1` (stereo not shown) [7,8-epoxy-1-octene], the “enantiomeric purity of the (R) epoxide formed” value in assay [1] was 83%.
`C1=CCCCC1` [cyclohexene]: the “oxidation by MMO” value in assay [16] is recorded as “unable to oxidize”.
For `C=Cc1ccccc1` [styrene], the “enantiomer excess of (S)-styrene oxide formed” value in assay [17] was above 99%.

Source of the values: US7169591B1, “Preparation of enantio-specific epoxides” (priority 1999, dated 2007).
